Measurements published in paper PMC5697638, “Identification of a Potent Phosphoinositide 3‐Kinase Pan Inhibitor Displaying a Strategic Carboxylic Acid Group and Development of Its Prodrugs” (Chemmedchem, 2017).

Target: T1, hPI3K‐c2γ (PIK3C2G) (Homo sapiens, UniProt O75747)
T1 construct: purchased ProQinase, Germany 1207‐0000‐1
T1 sequence (O75747 1-1486): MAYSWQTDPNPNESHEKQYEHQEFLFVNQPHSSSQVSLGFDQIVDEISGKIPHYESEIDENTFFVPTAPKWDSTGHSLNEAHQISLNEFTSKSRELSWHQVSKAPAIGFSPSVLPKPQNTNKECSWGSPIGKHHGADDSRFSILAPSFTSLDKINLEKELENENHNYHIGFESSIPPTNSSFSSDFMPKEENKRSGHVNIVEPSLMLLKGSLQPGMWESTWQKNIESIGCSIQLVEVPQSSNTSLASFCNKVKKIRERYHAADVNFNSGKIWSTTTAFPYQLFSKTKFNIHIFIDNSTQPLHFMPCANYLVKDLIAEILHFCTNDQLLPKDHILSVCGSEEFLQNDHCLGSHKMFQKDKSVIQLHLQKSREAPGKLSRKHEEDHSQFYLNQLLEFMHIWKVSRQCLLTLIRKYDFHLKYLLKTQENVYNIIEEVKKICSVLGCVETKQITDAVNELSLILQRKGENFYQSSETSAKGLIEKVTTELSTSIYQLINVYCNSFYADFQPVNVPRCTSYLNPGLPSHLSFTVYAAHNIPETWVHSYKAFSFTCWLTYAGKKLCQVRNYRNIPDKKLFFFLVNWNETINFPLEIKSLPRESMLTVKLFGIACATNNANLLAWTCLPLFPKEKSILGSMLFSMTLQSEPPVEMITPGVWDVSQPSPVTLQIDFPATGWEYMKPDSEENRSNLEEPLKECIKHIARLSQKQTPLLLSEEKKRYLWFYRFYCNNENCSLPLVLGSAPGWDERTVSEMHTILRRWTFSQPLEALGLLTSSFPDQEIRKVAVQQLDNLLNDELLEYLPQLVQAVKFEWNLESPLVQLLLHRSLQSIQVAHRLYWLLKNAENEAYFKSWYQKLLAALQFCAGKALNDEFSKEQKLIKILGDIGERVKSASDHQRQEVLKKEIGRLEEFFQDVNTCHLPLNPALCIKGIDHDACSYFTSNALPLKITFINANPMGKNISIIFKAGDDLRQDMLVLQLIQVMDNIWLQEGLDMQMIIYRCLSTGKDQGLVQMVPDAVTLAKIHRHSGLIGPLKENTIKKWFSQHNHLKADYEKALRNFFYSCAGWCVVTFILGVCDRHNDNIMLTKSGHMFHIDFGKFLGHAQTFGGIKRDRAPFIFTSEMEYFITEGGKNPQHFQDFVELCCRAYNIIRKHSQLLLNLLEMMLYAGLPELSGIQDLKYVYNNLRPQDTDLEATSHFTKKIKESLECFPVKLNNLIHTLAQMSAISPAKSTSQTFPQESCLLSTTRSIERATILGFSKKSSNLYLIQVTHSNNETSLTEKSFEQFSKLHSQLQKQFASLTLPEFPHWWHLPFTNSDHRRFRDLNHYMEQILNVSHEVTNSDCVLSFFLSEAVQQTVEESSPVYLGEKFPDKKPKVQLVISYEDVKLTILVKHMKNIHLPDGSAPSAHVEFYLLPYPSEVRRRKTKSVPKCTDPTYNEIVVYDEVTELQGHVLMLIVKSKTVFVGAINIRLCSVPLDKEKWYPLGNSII
Assay: lipid kinase assay (ADP-Glo), PI3K-C2γ
Format: biochemical
Conditions: Table 2; mean of at least three determinations, 95 % confidence intervals; read-out: IC50 PI3Kc2γ
Procedure: In vitro selection, lipid kinase assay: To determine the inhibitory activity of the new molecular entities on PI3K enzyme, a lipid kinase assay was performed: recombinant proteins (30 ng), human PI3Kα (PIK3CA/PIK3R1, #1161‐1165‐1 ProQinase–Germany), hPI3Kβ (PIK3CB wt/PIK3R1, #1168‐1165‐1 ProQinase, Germany), hPI3Kγ (PIK3CG, #1163‐0000‐1 ProQinase, Germany), hPI3Kδ (PIK3CD/PIK3R1, #1162–1165‐1 ProQinase, Germany), hPI3K‐C2α (PIK3C2A, #14‐906 Merck Millipore_Merck KGaA, Germany), hPI3K‐C2β (PIK3C2B, #14‐907 Merck Millipore_Merck KGaA, Germany), hPI3K‐c2γ (PIK3C2G, #1207‐0000‐1 ProQinase, Germany), and hVps34 (PIK3C3, #1160‐0000‐1 ProQinase, Germany), were incubated in kinase buffer {12.5 μL; 20 mM Tris‐HCl pH 7.5, 10 mM MgCl2, 10 μM ATP, 0.05 mg mL^−1 BSA, 0.5 mM EDTA, 5 mM HEPES pH 7.5, for PI3Kα,PI3Kβ, PI3Kγ, PI3Kδ, PI3KC‐2α, and PI3KC‐2γ; 15 mM MnCl2, 5 mM EGTA, 100 μM ATP, 50 mM HEPES pH 7.5, 100 mM NaCl, and 0.03 % CHAPS for PI3K‐C2β and VPS34 {BSA=bovine serum albumin; EDTA=ethylenediaminetetraacetic acid; HEPES=4‐(2‐hydroxyethyl)‐1‐piperazineethanesulfonic acid; EGTA=ethylene glycol‐bis(2‐aminoethylether)‐N,N,N′,N′‐tetraacetic acid; CHAPS=3‐[(3‐cholamidopropyl)dimethylammonio]‐1‐propanesulfonate}. In the reaction, the ATP concentration used for different PI3Ks was defined on the basis of the Michaelis–Menten kinetics of each enzyme, provided by the supplier. […]

O=C(O)c1cccc(Cn2cc(-c3cccc4c(=O)cc(N5CCOCC5)[nH]c34)nn2)c1 [Compound 37, 3‐{[4‐(2‐Morpholino‐4‐oxo‐1,4‐dihydroquinolin‐8‐yl)‐1H‐1,2,3‐triazol‐1‐yl]methyl}benzoic acid]
IC50: 2.8 ± 0.7 µM
